Where a SMILES comes first, the peptide text is derived from it. [ ]: non-standard residue; d: D form. The star is where a group is joined. X1 = O=C(O)CN1CCN(CC(=O)O)CCN([C@H](CCC(=O)*)C(=O)O)CC1; Sar = CNCC(=O)O
Key:
[1] = LogD7.4 determination (octanol/PBS); format: physicochemical; details: octanol / PBS pH 7.4
Protocol: The obtained solutions from ^67Ga labeling were diluted with water in a 1:1 ratio and brought to pH 7 using aqueous NaOH (1 M). For LogD7.4 determination, 10 μL of neutralized labeling solution was diluted with 290 μL 1× PBS (pH 7.4) and 300 μL 1-Octanol (both pre-saturated by each other). The mixture was vortexed vigorously for 30 s and subsequently centrifuged for 5 min at 16,100 rcf. Defined volumes of each layer (10 μL for PBS, 200 μL for Octanol) were taken and analyzed for their radioactivity (ISOMED 100, Nuvia, Frankfurt, Germany). The partition coefficient LogD7.4 was determined from the decadic logarithm of the fraction of the radioactivity content of the aqueous and octanol layers.

[2] = Stability in human serum (radio-HPLC, LC-MS); format: in vitro ADME; details: for remaining at 24 h: read-out: radioligand intact after 24 h in human serum
Protocol: For human serum stability investigation, 60 μL of the ^67Ga labeling mixture was mixed with 540 μL human serum and incubated at 37 °C. Aliquots of 25 μL were taken after 1, 2, 4 and 24 h. The aliquots were mixed with 75 μL of a mixture called “Supersol” (20% v/v EtOH, 0.5% Triton X-100, 5 mM EDTA, 0.5 mM o-phenantroline, and 0.1% saponine in water) and put on ice for 5 min. Subsequently, the mixtures were centrifuged at 16,100 rcf, 4 °C for 5 min. The supernatant was analyzed by analytical radio-HPLC. Serum half-lives were determined by non-linear regression according to one-phase decay. To determine the stability in labeling buffer, the labeling mixture was left at ambient temperature for 4 h. Subsequently, an aliquot of 5 μL was mixed with 45 μL of Supersol and analyzed with analytical radio-HPLC.
Analytical radio-HPLC was performed on a modular unit consisting of an operating unit (smartline manager 500, Knauer, Berlin, Germany), a pump unit (smartline pump 1000, Knauer, Berlin, Germany), a photo diode array detector (smartline PDA 2800, Knauer, Berlin, Germany) and a γ-detector (Ramona Star, Raytest, Lüttich, Belgium). The system was operated by the software Chromgate 2.8. Chromatography was conducted on a C18 column (Eurospher 100-5, 250 × 4 mm, Knauer, Berlin, Germany) at a flow rate of 1 mL/min.

[3] = human serum; details: up to 24 h

Compound	logD [1]	remaining at 24 h ([2]; 37 °C) [%]	further results
CC[C@H](C)[C@H](NC(=O)[C@H](CC(N)=O)NC(=O)[C@@H]1CCCN1C(=O)[C@@H]1CCCN1C(=O)[C@H](CCCNC(=N)N)NC(=O)[C@H](CC(=O)O)NC(=O)[C@H](CC(N)=O)NC(=O)[C@@H](N)CO)C(=O)N[C@@H](CC(C)C)C(=O)N[C@@H](CCC(N)=O)C(=O)N[C@@H](CCCCN)C(=O)N[C@@H](CCCNC(=N)N)C(=O)N(C)CC(=O)N(C)CC(=O)N(C)CC(=O)N[C@@H](CCCCNC(=O)CC[C@H](C(=O)O)N1CCN(CC(=O)O)CCN(CC(=O)O)CC1)C(N)=O [TJ12P2(K^11)-X3K-[^67Ga]Ga-NODA-GA-CONH2, metal not drawn] (H-SNDRPPNILQKR[Sar][Sar][Sar]K(X1)-NH2)	-4.79 ± 0.03	89	
CC[C@H](C)[C@H](NC(=O)[C@H](CC(N)=O)NC(=O)[C@@H]1CCCN1C(=O)[C@@H]1CCCN1C(=O)[C@H](CCCNC(=N)N)NC(=O)[C@H](CC(=O)O)NC(=O)[C@H](CC(N)=O)NC(=O)[C@@H](N)CO)C(=O)N[C@@H](CC(C)C)C(=O)N[C@@H](CCC(N)=O)C(=O)N[C@@H](CCC(N)=O)C(=O)N[C@@H](CCCNC(=N)N)C(=O)N(C)CC(=O)N(C)CC(=O)N(C)CC(=O)N[C@@H](CCCCNC(=O)CC[C@H](C(=O)O)N1CCN(CC(=O)O)CCN(CC(=O)O)CC1)C(N)=O [TJ12P2(Q^11)-X3K-[^67Ga]Ga-NODA-GA-CONH2, metal not drawn] (H-SNDRPPNILQQR[Sar][Sar][Sar]K(X1)-NH2)	-4.61 ± 0.05	95	
CC[C@H](C)[C@H](NC(=O)[C@H](CC(N)=O)NC(=O)[C@@H]1CCCN1C(=O)[C@@H]1CCCN1C(=O)[C@H](CCCNC(=N)N)NC(=O)[C@H](CC(=O)O)NC(=O)[C@H](CC(N)=O)NC(=O)[C@H](CO)NC(=O)CC[C@H](C(=O)O)N1CCN(CC(=O)O)CCN(CC(=O)O)CC1)C(=O)N[C@@H](CC(C)C)C(=O)N[C@@H](CCC(N)=O)C(=O)N[C@@H](CCCCN)C(=O)N[C@@H](CCCNC(=N)N)C(=O)O [[^67Ga]Ga-NODA-GA-TJ12P2(K^11), metal not drawn] (X1-SNDRPPNILQKR-OH)	-4.78 ± 0.05		remaining at 1 h ([2]; 37 °C, 1 h, read-out: radioligand intact after 1 h in human serum): 9.3%; half-life ([2]; human, serum, 37 °C, one-phase decay): 17.4 min; degradation product in human serum ([2]; radio-HPLC or LC-MS after 24 h): formation of a single metabolite
CC[C@H](C)[C@H](NC(=O)[C@H](CC(N)=O)NC(=O)[C@@H]1CCCN1C(=O)[C@@H]1CCCN1C(=O)[C@H](CCCNC(=N)N)NC(=O)[C@H](CC(=O)O)NC(=O)[C@H](CC(N)=O)NC(=O)[C@H](CO)NC(=O)CC[C@H](C(=O)O)N1CCN(CC(=O)O)CCN(CC(=O)O)CC1)C(=O)N[C@@H](CC(C)C)C(=O)N[C@@H](CCC(N)=O)C(=O)N[C@@H](CCC(N)=O)C(=O)N[C@@H](CCCNC(=N)N)C(=O)O [[^67Ga]Ga-NODA-GA-TJ12P2(Q^11), metal not drawn] (X1-SNDRPPNILQQR-OH)	-4.79 ± 0.03	72	
SNDRPPNILQQRXXXK(NODA-GA)			not cleaved ([3]; 37 °C): 95% still intact after 24 h
SulfoCy3-SNDRPPNILQKR			cleaved bond [3]: Lys11-arginine

— article PMC12655185 (Pharmaceuticals, 2025)
